Where a SMILES comes first, the peptide text is derived from it. [ ]: non-standard residue; d: D form. ξ: configuration not given here. ξαMePhe(2-F) = CC(N)(Cc1ccccc1F)C(=O)O; hArg = N=C(N)NCCCC[C@H](N)C(=O)O; ξαMeF = CC(N)(Cc1ccccc1)C(=O)O; Nle = CCCC[C@H](N)C(=O)O; ξαMeP = CC1(C(=O)O)CCCN1; Ac3c = NC1(C(=O)O)CC1; Aib = CC(C)(N)C(=O)O
Key:
Assay type in all cases: in vitro ADME
[1] = Stability of peptides in human plasma
Experimental: (§1) b) Stability of Peptides in Human Plasma, Simulated Gastric Fluid, Intestinal Fluid and Liver Microsomes (Ex-Vivo): Different short-chain peptides (final concentration 2 μM) were incubated with either pooled human plasma (7.5 μL) or simulated gastric fluid (pH 1.5; composition HCl, NaCl and Pepsin) or simulated intestinal fluid (pH 7.5) or human liver microsomes, for 0, 2, 4, 6, 12 and 24 h (37° C.; 50 mM triethanolamine-HCl buffer; pH 7.8). Concentrations of human plasma/simulated gastric fluid/simulated intestinal fluid/human liver microsomes were selected in preliminary experiments to provide degradation of approximately 50% of PTH(1-34) within 1 h, therefore allowing time-dependent degradation to be viewed over 24 h. Reactions were terminated by the addition of TFA/H2O ([…], 10% (v/v)). The reaction products were then applied to a Vydac C18 analytical column (4.6×250-mm) and the major degradation fragment separated from intact short-chain peptides. The column was equilibrated with TFA/H20, at a flow rate of 1 mL/min. Using 0.1% (v/v) TFA in 70% acetonitrile/H2O, the concentration of acetonitrile in the eluting solvent was raised from 0% to 28% over 10 min and from 28% to 42% over 30 min. The absorbance was monitored at 206 nm using UV detector and peaks were collected manually prior to ESI-MS analysis. Area under the curve was measured for test peptides and their metabolites and percentage degradation were calculated at each time point over a period of 24 h. Stability study results of selected peptides, in human plasma, simulated gastric fluid, intestinal fluid and liver microsomes (in vitro) are listed in Table 4.

[2] = Stability of peptides in simulated gastric fluid (pH 1.5; HCl, NaCl and Pepsin)
Experimental: as §1

[3] = Stability of peptides in human liver microsomes
Experimental: as §1

[4] = Stability of peptides in simulated intestinal fluid (pH 7.5); conditions: for half-life / half-life (t1/2) in simulated intestinal fluid: simulated gi fluid
Experimental: as §1

[5] = simulated gastric fluid, 2 μM, pH 1.5
[6] = human, microsomes, 2 μM, pH 7.8
[7] = simulated intestinal fluid, 2 μM, pH 7.5

| SMILES | metabolised at 24 h, 2 μM ([1]; human, plasma, pH 7.8) [%] | % degradation of peptides in 24 h when incubated with simulated gastric fluid [2, 5] [%] | half-life ([2]; simulated gi fluid, pH 1.5) [min] | half-life ([3]; human, microsomes) [min] | % degradation of peptides in 24 h when incubated with liver microsomes [3, 6] [%] | % degradation of peptides in 24 h when incubated with simulated intestinal fluid [4, 7] [%] | half-life ([1]; human, plasma) [min] | half-life (t1/2) in simulated intestinal fluid ([4]; pH 7.5) | further results |
| --- | --- | --- | --- | --- | --- | --- | --- | --- | --- |
| CC[C@H](C)[C@H](NC(=O)[C@H](CCC(=O)O)NC(=O)[C@H](CO)NC(=O)[C@@H](NC(=O)[C@@H](N)CO)C(C)C)C(=O)N[C@@H](CCC(N)=O)C(=O)N[C@@H](CC(C)C)C(=O)N[C@@H](CCSC)C(=O)N[C@@H](Cc1cnc[nH]1)C(=O)N[C@@H](CC(N)=O)C(=O)N[C@@H](CC(C)C)C(=O)NCC(=O)N[C@@H](CCCCN)C(=O)N[C@@H](Cc1cnc[nH]1)C(=O)N[C@@H](CC(C)C)C(=O)N[C@@H](CC(N)=O)C(=O)N[C@@H](CO)C(=O)N[C@@H](CCSC)C(=O)N[C@@H](CCC(=O)O)C(=O)N[C@@H](CCCN=C(N)N)C(=O)N[C@H](C(=O)N[C@@H](CCC(=O)O)C(=O)N[C@@H](Cc1c[nH]c2ccccc12)C(=O)N[C@@H](CC(C)C)C(=O)N[C@@H](CCCN=C(N)N)C(=O)N[C@@H](CCCCN)C(=O)N[C@@H](CCCCN)C(=O)N[C@@H](CC(C)C)C(=O)N[C@@H](CCC(N)=O)C(=O)N[C@@H](CC(=O)O)C(=O)N[C@H](C(=O)N[C@@H](Cc1cnc[nH]1)C(=O)N[C@@H](CC(N)=O)C(=O)N[C@@H](Cc1ccccc1)C(=O)O)C(C)C)C(C)C [PTH(1-34), reference compound] |  |  |  |  |  |  |  |  | % degradation of peptides in 24 h when incubated with human plasma ([1]; 24 h, human plasma, 37° C., peptide 2 μM): 97%; half-life ([1]; human plasma, 37° C., peptide 2 μM, read-out: half-life (t1/2) in human plasma): 30 min; metabolised at 1 h ([1]; pH 7.8, human plasma, within 1 h, 37° C., preliminary experiments, read-out: degradation): ~50%; % degradation of peptides in 24 h when incubated with simulated gastric fluid ([2]; simulated gastric fluid pH 1.5, 37° C., peptide 2 μM): 100%; metabolised at 1 h ([2]; pH 1.5, simulated gastric fluid, within 1 h, 37° C., preliminary experiments, read-out: degradation): ~50%; half-life ([2]; simulated gi fluid, simulated gastric fluid pH 1.5, 37° C., peptide 2 μM, read-out: half-life (t1/2) in simulated gastric fluid): 6 min; % degradation of peptides in 24 h when incubated with liver microsomes ([3]; human liver microsomes, 37° C., peptide 2 μM): 100%; half-life ([3]; human liver microsomes, 37° C., peptide 2 μM, read-out: half-life (t1/2) in liver microsomes): 6 min; metabolised at 1 h ([3]; pH 7.8, human liver microsomes, within 1 h, 37° C., preliminary experiments, read-out: degradation): ~50%; % degradation of peptides in 24 h when incubated with simulated intestinal fluid ([4]; simulated intestinal fluid pH 7.5, 37° C., peptide 2 μM): 100%; metabolised at 1 h ([4]; pH 7.5, simulated intestinal fluid, within 1 h, 37° C., preliminary experiments, read-out: degradation): ~50%; half-life ([4]; simulated intestinal fluid pH 7.5, 37° C., peptide 2 μM, read-out: half-life (t1/2) in simulated intestinal fluid): 12 min |
| CCCC[C@H](NC(=O)[C@H](CC(C)C)NC(=O)[C@H](CCC(N)=O)NC(=O)[C@@H](NC(=O)[C@H](CCC(=O)O)NC(=O)C(C)(C)NC(=O)[C@@H](NC(=O)C(C)(C)N)C(C)C)[C@@H](C)CC)C(=O)N[C@@H](Cc1c[nH]cn1)C(=O)N[C@@H](CCC(N)=O)C(=O)N[C@@H](CCCCNC(=N)N)C(=O)NC(C)(C)C(=O)N[C@@H](CCCCN)C(=O)NC(C)(Cc1ccccc1)C(N)=O (stereo partly drawn) [Seq. ID. 10] (H-[Aib]V[Aib]EIQL[Nle]HQ[hArg][Aib]K[ξαMeF]-NH2) | 70 | 100 | 30 | 30 | 100 | 100 |  |  | half-life (t1/2) in human plasma ([1]; human, plasma): (9) h; half-life ([4]; pH 7.5): 30 min |
| CC[C@H](C)[C@H](NC(=O)[C@H](CCC(=O)O)NC(=O)C(C)(C)NC(=O)[C@@H](NC(=O)C1(N)CC1)C(C)C)C(=O)N[C@@H](CCC(N)=O)C(=O)N[C@@H](CC(C)C)C(=O)N[C@@H](CCSC)C(=O)N[C@@H](Cc1c[nH]cn1)C(=O)N[C@@H](CCC(N)=O)C(=O)N[C@@H](CCCCNC(=N)N)C(=O)NC(C)(C)C(=O)N[C@@H](CCCCN)C(=O)NC(C)(Cc1ccccc1)C(N)=O (stereo partly drawn) [Seq. ID. 14] (H-[Ac3c]V[Aib]EIQLMHQ[hArg][Aib]K[ξαMeF]-NH2) | 69 | 11 | 420 | 120 | 77 | 43 | 480 | (6) h |  |
| CCCC[C@H](NC(=O)C(C)(Cc1ccccc1F)NC(=O)[C@H](CCC(N)=O)NC(=O)[C@@H](NC(=O)[C@H](CCC(=O)O)NC(=O)C(C)(C)NC(=O)[C@@H](NC(=O)C(C)(C)N)C(C)C)[C@@H](C)CC)C(=O)N[C@@H](Cc1c[nH]cn1)C(=O)N[C@@H](CCC(N)=O)C(=O)N[C@@H](CCCCNC(=N)N)C(=O)N1CCCC1(C)C(=O)N[C@@H](CCCCN)C(=O)NC(C)(Cc1ccccc1)C(N)=O (stereo partly drawn) [Seq. ID. 25] (H-[Aib]V[Aib]EIQ[ξαMePhe(2-F)][Nle]HQ[hArg][ξαMeP]K[ξαMeF]-NH2) | 75 | 12 |  | 60 | 83 | 46 | 480 | (6) h | half-life (t1/2) in simulated gastric fluid ([2]; simulated gi fluid, pH 1.5): (8) h |
